Assay results taken from patent publication US7009045B2 (priority 2000, dated 2006).

Experiments:
Assay type in all cases: cell-based
[1] = tested on: Candida famata regulatory mutants able to overproduce riboflavin; assay: Sensitivity to copper ions, solid Burkholder medium (Table 12); design: key: +++: strong growth; ++: weak growth; —: absence of growth
Description: The sensitivity of the regulatory mutants of the yeast C. famata which overproduce riboflavin in iron rich medium probably due to defects in genes regulating repression (repression mutants), to different ions of heavy metals was studied. For this, the analyzed strains were streaked on the YPD plates and then were replica-plated on Burkholder synthetic medium containing leucine (40 μg/ml). The C.famata mutants L20105-40-1-11, L20105-40-1-17, L20105-3-2-1, L20105-3-2-8 and L20105-3-2-12 (all contained leu2 marker) accumulated 80–100 μg riboflavin/ml. The mutants #75, 4-48, 2-5 produced much higher amounts of riboflavin (200–250 μg/ml) but were prototrophs for leucine synthesis. Strain #75 was characterized by retarded growth comparing with other mutants. The strains VKM Y-9 (wild type) and L20105 (leu2) were used as the control strains.
Mutants overproducing lower amounts of riboflavin appeared to be more sensitive to CuSO4 (0.15 mM) than that of the strains producing higher amounts of riboflavin (inhibitory concentration 0.5 mM) (Table 12).

[2] = tested on: Pichia guilliermondii wild type and regulatory mutants (rib81); assay: Sensitivity after electroporation to K2Cr2O7, Burkholder medium with 0.3 M sucrose (Table 22); conditions: Cr^+6 100 to 600 μM
[3] = tested on: Candida famata wild type and regulatory mutants able to overproduce riboflavin on iron-rich medium; assay: Sensitivity after electroporation to K2Cr2O7, Burkholder medium with 1% ethanol (Table 17); conditions: K2Cr2O7 15–50 μM
Text: The strategy for the cloning of the genes regulating derepression of riboflavin in C. famata was developed using regulatory mutants 2-5 and 4-48 which accumulate elevated amounts of riboflavin in the medium with high iron content. The method for positive selection of the transformants which, after transformation with C. famata gene library, would lose the ability to overproduce riboflavin in iron rich medium, was developed. For this, the difference in sensitivity to Cr^+6 ions (as K2Cr2O7) between C. famata wild strain VKM Y-9 and overproducers of riboflavin 2-5 and 4-48 after their electroporation with the C. famata gene library constructed on pCfARS1614, was studied.
Toxicity of Cr^+6 was studied on agar plates containing different carbon sources (sucrose, glycerol, ethanol). Before the electroporated cells were plated on ethanol and glycerol medium, the cells were washed 3 times with 10 fold volumes of 0.6 M KCl and the suspension volumes were adjusted with 0.6 M KCl to 100 μl. On each plate containing glycerol (0.5%) or ethanol (1%), 0.6 M KCl and different concentrations (10–200 uM) of K2Cr2O7, in a 30–60 μl suspension were spread. Where sucrose was used as a carbon source, this sugar was used at a 0.3M concentration, using it as both as a carbon source and osmotic stabilizer.

O=S(=O)([O-])[O-].[Cu+2] [CuSO4]
++: growth ([1]; #2-5, Cu^+2 0.3 mM) | growth ([1]; #2-5, Cu^+2 0.35 mM) | growth ([1]; #2-5, Cu^+2 4 mM) | growth ([1]; #4-48, Cu^+2 0.3 mM) | growth ([1]; #4-48, Cu^+2 0.35 mM) | growth ([1]; #4-48, Cu^+2 4 mM) | growth ([1]; #75, Cu^+2 0.3 mM) | growth ([1]; #75, Cu^+2 0.35 mM) | growth ([1]; #75, Cu^+2 4 mM) | growth ([1]; L20105 (leu2), Cu^+2 0.45 mM) | growth ([1]; L20105 (leu2), Cu^+2 0.5 mM) | growth ([1]; L20105 (leu2), Cu^+2 0.55 mM) | growth ([1]; L20105-3-2-8, Cu^+2 0.05 mM) | growth ([1]; L20105-3-2-12, Cu^+2 0.05 mM)
—: growth ([1]; #2-5, Cu^+2 0.5 mM) | growth ([1]; #2-5, Cu^+2 0.55 mM) | growth ([1]; #2-5, Cu^+2 0.6 mM) | growth ([1]; #2-5, Cu^+2 0.65 mM) | growth ([1]; #2-5, Cu^+2 0.7 mM) | growth ([1]; #2-5, Cu^+2 0.75 mM) | growth ([1]; #2-5, Cu^+2 8 mM) | growth ([1]; #4-48, Cu^+2 0.5 mM) | growth ([1]; #4-48, Cu^+2 0.55 mM) | growth ([1]; #4-48, Cu^+2 0.6 mM) | growth ([1]; #4-48, Cu^+2 0.65 mM) | growth ([1]; #4-48, Cu^+2 0.7 mM) | growth ([1]; #4-48, Cu^+2 0.75 mM) | growth ([1]; #4-48, Cu^+2 8 mM) | growth ([1]; #75, Cu^+2 0.5 mM) | growth ([1]; #75, Cu^+2 0.55 mM) | growth ([1]; #75, Cu^+2 0.6 mM) | growth ([1]; #75, Cu^+2 0.65 mM) | growth ([1]; #75, Cu^+2 0.7 mM) | growth ([1]; #75, Cu^+2 0.75 mM) | growth ([1]; #75, Cu^+2 8 mM) | growth ([1]; L20105-3-2-4, Cu^+2 0.15 mM) | growth ([1]; L20105-3-2-4, Cu^+2 0.2 mM) | growth ([1]; L20105-3-2-4, Cu^+2 0.25 mM) | growth ([1]; L20105-3-2-4, Cu^+2 0.35 mM) | growth ([1]; L20105-3-2-4, Cu^+2 0.45 mM) | growth ([1]; L20105-3-2-4, Cu^+2 0.5 mM) | growth ([1]; L20105-3-2-4, Cu^+2 0.55 mM) | growth ([1]; L20105-3-2-4, Cu^+2 0.6 mM) | growth ([1]; L20105-3-2-4, Cu^+2 0.65 mM) | growth ([1]; L20105-3-2-4, Cu^+2 0.7 mM) | growth ([1]; L20105-3-2-4, Cu^+2 0.75 mM) | growth ([1]; L20105-3-2-4, Cu^+2 4 mM) | growth ([1]; L20105-3-2-8, Cu^+2 0.15 mM) | growth ([1]; L20105-3-2-8, Cu^+2 0.2 mM) | growth ([1]; L20105-3-2-8, Cu^+2 0.25 mM) | growth ([1]; L20105-3-2-8, Cu^+2 0.3 mM) | growth ([1]; L20105-3-2-8, Cu^+2 0.35 mM) | growth ([1]; L20105-3-2-8, Cu^+2 0.45 mM) | growth ([1]; L20105-3-2-8, Cu^+2 0.5 mM) | growth ([1]; L20105-3-2-8, Cu^+2 0.55 mM) | growth ([1]; L20105-3-2-8, Cu^+2 0.6 mM) | growth ([1]; L20105-3-2-8, Cu^+2 0.65 mM) | growth ([1]; L20105-3-2-8, Cu^+2 0.7 mM) | growth ([1]; L20105-3-2-8, Cu^+2 0.75 mM) | growth ([1]; L20105-3-2-8, Cu^+2 4 mM) | growth ([1]; L20105-3-2-8, Cu^+2 8 mM) | growth ([1]; L20105-3-2-12, Cu^+2 0.15 mM) | growth ([1]; L20105-3-2-12, Cu^+2 0.2 mM) | growth ([1]; L20105-3-2-12, Cu^+2 0.25 mM) | growth ([1]; L20105-3-2-12, Cu^+2 0.3 mM) | growth ([1]; L20105-3-2-12, Cu^+2 0.35 mM) | growth ([1]; L20105-3-2-12, Cu^+2 0.45 mM) | growth ([1]; L20105-3-2-12, Cu^+2 0.5 mM) | growth ([1]; L20105-3-2-12, Cu^+2 0.55 mM) | growth ([1]; L20105-3-2-12, Cu^+2 0.6 mM) | growth ([1]; L20105-3-2-12, Cu^+2 0.65 mM) | growth ([1]; L20105-3-2-12, Cu^+2 0.7 mM) | growth ([1]; L20105-3-2-12, Cu^+2 0.75 mM) | growth ([1]; L20105-3-2-12, Cu^+2 4 mM) | growth ([1]; L20105-3-2-12, Cu^+2 8 mM)
+++: growth ([1]; #2-5, Cu^+2 0.05 mM) | growth ([1]; #2-5, Cu^+2 0.1 mM) | growth ([1]; #2-5, Cu^+2 0.15 mM) | growth ([1]; #2-5, Cu^+2 0.2 mM) | growth ([1]; #2-5, Cu^+2 0.25 mM) | growth ([1]; #4-48, Cu^+2 0.05 mM) | growth ([1]; #4-48, Cu^+2 0.1 mM) | growth ([1]; #4-48, Cu^+2 0.15 mM) | growth ([1]; #4-48, Cu^+2 0.2 mM) | growth ([1]; #4-48, Cu^+2 0.25 mM) | growth ([1]; #75, Cu^+2 0.05 mM) | growth ([1]; #75, Cu^+2 0.1 mM) | growth ([1]; #75, Cu^+2 0.15 mM) | growth ([1]; #75, Cu^+2 0.2 mM) | growth ([1]; #75, Cu^+2 0.25 mM)

[K+].[K+].[O]=[Cr](=[O])([O-])[O][Cr](=[O])(=[O])[O-] [K2Cr2O7]
almost uninhibited: growth of the wild-type strain [3]
no differences in sensitivity: difference in sensitivity between regulatory mutants and the wild type [2]
